“Also recorded” adds a separate entry of the source. Like-named read-outs stand apart in the source and are kept apart here.
Tests used:
DBA-2 mice = assay: audiogenic seizure model in DBA-2 mice; format: in vivo; details: Mus musculus, ip, 0.5 h; i.p. injection
Excerpt: The anticonvulsant activity of the glycine and excitatory amino acid antagonists can be assessed in the audiogenic seizure model in DBA-2 mice as follows. DBA-2 mice can be obtained from Jackson Laboratories, Bar Harbor, Maine. These mice at an age of <27 days develop a tonic seizure within 5-10 seconds and die when they are exposed to a sound of 14 kHz (sinus wave) at 110 dB (Lonsdale, D., Dev. Pharmacol. Ther. 4:28 (1982)). […] 21 day old DBA-2 mice are used for all experiments. Compounds are given intraperitoneally in either saline, DMSO, or polyethyleneglycol-400. Appropriate solvent controls are included in each experiment. Dose response curves are constructed by giving increasing doses of drug from 1 mg/kg to 100 mg/kg. Each dose group (or solvent control) consists of at least six animals.

glycine binding site = glycine binding site (Rattus norvegicus, UniProt P35439); assay: affinity for the glycine binding site / glycine/NMDA receptor (Ki; method not stated)
Excerpt: (§1) The binding affinities of quinoxaline-2,3-diones at NMDA receptor glycine sites also were estimated by electrophysiological assays with either cloned rat NMDA receptors expressed in Xenopus oocytes, or non-NMDA receptors expressed in oocytes by whole rat brain poly(A)^+ RNA. […] For NMDA receptors Ki values were approximated by averaging values at three subtype combinations (NR1A/NR2A, NR1A/NR2B, and NR1A/NR2C).

mice [1] = assay: anticonvulsant activity in maximum electroshock seizure (MES) experiments in mice; format: in vivo, male Swiss/Webster mice; details: Mus musculus, ip; Table III; i.p. injection
PCP receptor = details: Wong et al. 1986; cited from earlier work
neurons = details: literature; cited from earlier work
[2] = system: non-NMDA glutamate receptors; details: literature, cited from earlier work
animals = details: literature; cited from earlier work
[3] = literature, cited from earlier work
[4] = system: glycine binding site of the NMDA receptor; details: literature, cited from earlier work
mice [5] = assay: anticonvulsant activity in maximum electroshock seizure (MES) experiments in mice; format: in vivo, male Swiss/Webster mice
Experimental: The seizure stimulus parameters were: 50 mA, 60 Hz, rectangular pulse, width 0.8 msec, duration 200 msec. Tonic hind limb extension observed after application of the electrical stimulus was recorded as occurrence of seizure. The drug was applied i.v. as an aqueous Tris (Tromethamine) solution.

mice [6] = assay: MES test with i.p. NMCQX or NDMQX (Example 51); format: in vivo, Swiss Webster mice; details: NMCQX 1.25-7.50 mg/kg, NDMQX 5.00-15.00 mg/kg
Experimental: In the MES test, mice were injected i.p. with NMCQX (1.25-7.50 mg/kg) or NDMQX (5.00-15.00 mg/kg). Control mice were injected with Tris (0.05 M) or Arginine (0.1 M), respectively. Seizures were then induced by applying a rectangular pulse, 50 mA, 60 pulses/sec, 0.8 msec pulse width, and 0.2 sec train length, at the time of the drugs' peak effect.

mice [7] = assay: formalin test for pain in Swiss Webster mice; format: in vivo, male Swiss Webster mice; details: i.p., early and late phases
Experimental: The effects of the glycine receptor antagonists of the present invention on chronic pain can be evaluated as follows. Male Swiss/Webster mice weighing 25-35 grams are housed five to a cage with free access to food and water and are maintained on a 12 hour light cycle (light onset at 0800h). The glycine receptor antagonist is dissolved in DMSO at a concentration of 140 and 5-40 mg/mL, respectively. DMSO is used as vehicle control. All drugs=are injected intraperitoneally (1 μl/g). […] Mice are observed in a plexiglass cylinder, 25 cm in diameter and 30 cm in height. The plantar surface of one hindpaw is injected subcutaneously with 20 μl of 5% formalin. The degree of pain is determined by measuring the amount of time the animal spends licking the formalin-injected paw during the following time intervals: 0-5' (early phase); 5'-10', 10'-15' and 15'-50' (late phase). To test whether the glycine/excitatory amino acid antagonists prevent chronic pain in the test animals, vehicle (DMSO) or drugs dissolved in vehicle at doses of 1 mg/kg to 40 mg/kg are injected intraperitoneally 30 minutes prior to the formalin injection. For each dose of drug or vehicle control at least six animals are used.
Briefly, after a 60 minute accommodation period in plexiglass jars, mice were weighed and injected intraperitoneally (i.p.) with NDMQX (1-20 mg/kg; N=6-10 mice/dose). Controls were injected with DMSO (1 mL/kg, i.p.). Thirty min later, mice were injected with formalin (20 μl of 5% solution) just under the skin of the right hind paw, transferred to the plexiglass jars, and immediately observed for licking or biting of the injected paw for 1 hr. The amount of time that each mouse spent licking the injected paw was measured at 0-5 min (early phase) and 15-50 min (late phase).
In the formalin test, following a 1 hr accommodation period, mice were injected i.p. with NMCQX (1.00-10.00 mg/kg, N=7-13 mice/dose) or NDMQX (0.5-20.00 mg/kg, N=8-9 mice/dose). Control mice were injected with Tris (0.5 M) or Bis-Tris (0.2 M), respectively. Mice were then injected with formalin. […] The amount of time that each mouse spent licking and/or biting the injected paw was recorded for 1 hr.

rats = assay: rat model of permanent focal cerebral ischemia, continuous intravenous infusion; format: in vivo, male Sprague-Dawley rats
Experimental: Male Sprague-Dawley rats (290-320 g) were […] and maintained under anesthesia with ±2% of halothane. […] The common carotid arteries (CCA) were isolated, and a loose silk ligature Was placed around each CCA. A vertical skin incision was made between the left orbit and the auditory canal, posterior part of zygoma removed and small opening (2.0/2.5 mm) drilled dorsorostrally to the foramen ovale under constant saline irrigation. The dura was opened with a microsurgical hook and the brain gently retracted with a fine spatula to expose the bifurcation of the internal carotid artery and the middle cerebral artery. The ipsilateral CCA was ligated and the MCA coagulated from its origin to the olfactory tract Two hours after MCA occlusion, the clip from the contralateral CCA was removed.
NDMQX was dissolved in 0.1 M L-arginine and 5% glucose and infused as a slow 10 mg/kg i.v. bolus (immediately after MCA occlusion) followed by 7 mg/kg/h infusion for 22 hours.
Brains were sliced into 2 mm blocks and stained with tetrazolium red (2,3,5-triphenyl tetrazolium chloride). The areas of brain damage were assessed using an image analyzer (Image-1, Universal Imaging Corporation, PA) to determine the volume of cortical and subcortical infarction by integration of areas and the distance between each level.
For the drug administration, the NMCQX was dissolved in 0.05 Tris and 5% glucose. It was infused as a slow 2 mg/kg i.v. bolus (immediately after MCA occlusion) followed by 1.4 mg/kg/h infusion for 22 hours.

[8] = target: NMDA receptor glycine sites; assay: electrophysiological assay, cloned rat NMDA receptors expressed in Xenopus oocytes; format: cell-based; details: Table II; from electrophysiology using Xenopus oocytes
Excerpt: as §1

[9] = system: dorsal horn nociceptive neurons; details: literature; cited from earlier work
[10] = listed as 6-cyano-7-nitroquinoxaline-2,3-dione

SMILES: O=c1[nH]c2cc(F)c(F)c(Br)c2[nH]c1=O [Br F F H]
- ED50 (DBA-2 mice): 30 mg/kg
- Ki (glycine binding site; Table III, read-out: Ki): 2300 nM

SMILES: O=c1[nH]c2c(F)c(F)c(F)c(F)c2[nH]c1=O [F F F F, 5,6,7,8-tetrafluoro-1,4-dihydroquinoxaline-2,3-dione]
- ED50 (mice [1]): 20 mg/kg
- ED50 (DBA-2 mice): 9 mg/kg
- Ki (glycine binding site; Table III, read-out: Ki): 2190 nM

SMILES: C[C@]12N[C@H](Cc3ccccc31)c1ccccc12 [MK801]
- Kd (PCP receptor): ~3 nM
- neuroprotective efficacy (neurons): have neuroprotective efficacy both in vitro and in vivo

SMILES: N#Cc1cc2nc(O)c(O)nc2cc1[N+](=O)[O-] [6-cyano-7-nitro-1,4-dihydroquinoxaline-2,3-dione]
- antagonism at kainate / AMPA / non-NMDA receptors [2]: more potent antagonists of kainate than glycine
- antagonism at kainate / AMPA / non-NMDA receptors [2, 10]: AMPA
- antagonism at kainate / AMPA / non-NMDA receptors ([2]; listed as 7-cyano-6-nitro-1,4-dihydroquinoxaline-2,3-dione): potent non-NMDA glutamate receptor antagonists
- in vivo activity (animals): antagonize responses mediated by NMDA-associated glycine recognition sites in vivo
- penetration of the blood/brain barrier (words) [3]: incapable of crossing the blood/brain barrier after i.p. administration
- penetration of the blood/brain barrier (words) ([3]; listed as CNQX): poor access to the central nervous system
- penetration of the blood/brain barrier (words) ([3]; listed as cyano-7-nitro-1,4-dihydroquinoxaline-2,3-dione): poor access to the central nervous system
- neuroprotective efficacy (neurons): neuroprotective in vitro
- glycine site antagonism or affinity (words) [4]: can antagonize the responses to L-glutamate by interacting with the glycine recognition sites; also recorded: inhibit [^3 H] glycine binding to the strychnine-insensitive glycine binding sites; also recorded: antagonizes NMDA receptor-mediated responses by a competitive interaction of the glycine binding site
- glycine site antagonism or affinity (words) [4, 10]: glycine antagonists

SMILES: Cc1c(Cl)cc2[nH]c(=O)c(=O)[nH]c2c1[N+](=O)[O-] [NMCQX, 7-Chloro-6-methyl-5-nitro-1,4-dihydroquinoxaline-2,3-dione]
- times better than 6,7-dichloro-5-nitro-1,4-dihydroquinoxaline-2,3-dione as anticonvulsant (mice [5]; MES ED50 ratio): 4-5 times
- ED50 as an anticonvulsant in the MES experiment in mice (mice [5]; route not stated): 1 mg/kg
- protection from electroshock seizures (mice [6]): dose-dependently protected mice from generalized clonic-tonic seizures
- antinociceptive effect in the formalin test (mice [7]): dose-dependent antinociceptive effect in both phases
- Ki (glycine binding site): 5 nM
- reduction in cortical infarct volume (rats; 2 mg/kg i.v. bolus then 1.4 mg/kg/h for 22 hours, p<0.05): 75%
- neuroprotection (rats; rat focal ischemia): significant neuroprotection
- Ki [8]: 5 nM

SMILES: O=C(O)c1cc(O)c2ccc(Cl)cc2n1 [7-Cl-kynurenic acid]
- blockade of "wind up" [9]: blocked the "wind up" phenomenon
- penetration of the blood/brain barrier (words) [3]: cannot penetrate the blood/brain barrier
- glycine site antagonism or affinity (words) [4]: relatively high receptor binding affinity in vitro

— patent US6251903A, “Alkyl, azido, alkoxy, and fluoro-substituted and fused quinoxalinediones and the use thereof as glycine receptor antagonist” (priority 2000, dated 2001)
